Key:
[1] = system: permeabilized single fibers from rat diaphragm muscle; experiment: Skinned fiber tension at constant calcium, rat diaphragm; type: cell-based
Experimental: (§1) Muscle tissue for in vitro skinned fiber studies were prepared using a protocol based on Lynch and Faulkner (Am J Physiol 275:C1548-54 (1998)). Briefly, rat diaphragm or rabbit psoas muscles were rapidly dissected and rinsed with physiological saline. Muscles were then incubated in skinning solution (125 mM K-propionate, 20 mM imidazole, 5 mM EGTA, 2 mM MgCl2, 2 mM ATP, pH 7.0) supplemented with 0.5% Brij 58 (Sigma Chemicals, St. Louis, Mo.) or 0.5% Triton X-100 (Sigma Chemicals, St. Louis, Mo.) for 30 minutes at 4° C. Muscles were then placed in storage solution (125 mM K-propionate, 20 mM imidazole, 5 mM EGTA, 2 mM MgCl2, 2 mM ATP, glycerol 50%, pH 7.0) at −20° C. Muscles were incubated in storage solution at −20° C. for later use.
(§2) For skinned fiber analysis, single muscle fibers were dissected from larger segments of tissue in rigor buffer at 4° C. (20 μM MOPS, 5 μM MgCl2, 120 μM potassium acetate, 1 μM EGTA, pH 7.0). […]
(§3) The functional effects of the fast skeletal muscle troponin activator, Compound A (6-bromo-1-(ethylpropyl)imidazo[4,5-b]pyrazin-2-ol), on skeletal muscle force were assessed under isometric conditions in permeabilized single fibers from rabbit psoas muscle and rat diaphragm muscle according to the procedure of Example 1.

[2] = system: permeabilized single fibers from rabbit psoas muscle; experiment: Skinned fiber tension at constant calcium, rabbit psoas; type: cell-based
Experimental: as §1, §2, §3

rat diaphragm muscle [3] = experiment: Force-frequency relationship, ex vivo electrical field stimulation
Experimental: (§4) Diaphragm contractile force was measured by electrical field stimulation in an organ bath system (Radnoti) based on a standard operating protocol adapted from the Treat NMD website (http://www.treat-nmd.eu/downloads/file/sops/dmd/MDX/DMD M.1.2.002.pdf). The diaphragm and the last floating rib from SHAM and LAD rats were excised, rinsed in physiological saline, and placed in a temperature controlled water-jacketed chamber (26-27° C.) containing Krebs-Henseleit Buffer (118 mM NaCl, 10 mM glucose, 4.6 mM KCl, 1.2 mM KH2PO4, 1.2 mM MgSO4*7H2O, 24.8 mM NaHCO3, 2.5 mM CaCl2, 50 mg/L tubocurarine, 50 U/L insulin, pH:7.4) that was continuously aerated with 95% O2/[…]. After 10 minutes of equilibration, vertical strips spanning the floating rib to the central tendon were cut from diaphragms. Braided silk sutures were tied at the central tendon and floating rib and attached to a force transducer between two platinum electrodes. Diaphragm strips were set to a length that produced maximum twitch tension (Lo). The force-frequency profile of the muscle was obtained by stimulating the muscle at frequencies between 10-150 Hz (Grass Stimulator, 800 ms train duration, 0.6 ms pulse width).
Force production was measured in rat diaphragm muscle ex vivo by electrical field stimulation in the presence and absence of Compound B according to the procedure of Example 6. Compound B was suspended in DMSO and added directly to the bath.
Force production was measured in rat diaphragm muscle ex vivo by electrical field stimulation in the presence and absence of fast skeletal muscle troponin activator Compound D, 1-(2-(((trans)-3-fluoro-1-(3-fluoropyridin-2-yl)cyclobutyl)methylamino)pyrimidin-5-yl)-1H-pyrrole-3-carboxamide according to the procedure of Example 6. Compound D was suspended in DMSO and added directly to the bath.

[4] = system: rat skinned diaphragm fibers; experiment: Force-pCa skinned muscle fiber analysis; type: cell-based
Experimental: as §1
For skinned fiber analysis, single muscle fibers were dissected from larger segments of tissue in rigor buffer at 4° C. ([…], pH 7.0). They were then suspended between a 400 A force transducer (Aurora Scientific, Ontario, Canada) and a fixed post and secured with 2-4 μl of a 5% solution of methylcellulose in acetone. Fibers were then incubated at 10° C. in a relaxing buffer ([…], 1 mg/ml creatine kinase, 1 mM DTT, 44 ppm antifoam, pH 7.0) and baseline tension adjusted. Tension was generated in each fiber by changing fiber buffer over to relax buffer supplemented with 1 mM EGTA and one or more concentrations of aqueous calcium chloride. Test articles were added to these buffers in a 1% DMSO solution.
Force production was measured in rat skinned diaphragm fibers exposed to increasing concentrations of calcium in the presence and absence of the fast skeletal muscle troponin activator Compound B, (3-(2-(((trans)-3-fluoro-1-(3-fluoropyridin-2-yl)cyclobutyl)methylamino)pyrimidin-5-yl)benzamide), according to the procedure of Example 1.
Force production was measured in rat skinned diaphragm fibers exposed to increasing concentrations of calcium in the presence and absence of the fast skeletal muscle troponin activator Compound C, 1-(ethylpropyl)-6-ethynylimidazo[4,5-b]pyrazin-2-ol, according to the procedure in Example 1.

rat diaphragm muscle [5] = experiment: Diaphragm repeated contraction fatigue analysis; settings: 5 uM and 10 uM, dose-dependent; 20 Hz stimulation, 10 minutes
Experimental: as §4, with “The force-frequency profile of the muscle was obtained by stimulating the muscle at frequencies between 10-150 Hz (Grass Stimulator, 800 ms train duration, 0.6 ms pulse width).” left out
Following the procedure of Example 7, diaphragms were subjected to repeated electrical stimulations (20 Hz stimulation, 330 ms train duration, 1 train/sec) over a period of 10 minutes. Force production was measured over 600 contractions in rat diaphragm muscle ex vivo by field electrical stimulation in the presence and absence of Compound B (5 uM and 10 uM).

SOD1 mice = experiment: Unrestrained whole body plethysmography (UWBP); type: in vivo, mouse; settings: 10 mg/kg
Experimental: Wild type (WT) and SOD1 mice were dosed with vehicle or 10 mg/kg Compound C and placed in plethysmography chambers for 30 minutes of acclimatization. After acclimatization, respiratory parameters, including tidal volume, respiratory rate, and minute ventilation, were monitored for 10 minutes at room air. Upon completion of baseline room air measurements, animals were exposed to a 5% CO2 gas mixture for 30 minutes. After the 5% CO2 exposure, animals were re-exposed to room air and monitored.

[6] = system: WT and SOD1 mouse diaphragm muscle; experiment: Diaphragm force-frequency relationship in a mouse ALS model; settings: frequencies up to 30 Hz; dose-dependent
Experimental: as §4, with “wild type (WT)” for “SHAM”, “SOD1 mice” for “LAD rats”, “width). Compound C was suspended in DMSO and directly added into the bath.” for “width).”

[7] = system: skinned diaphragm fibers from SHAM and LAD rats; experiment: Force-pCa skinned muscle fiber analysis in a rat model of HF; type: cell-based; settings: 3 μM
Experimental: as §1
For skinned fiber analysis, single muscle fibers were dissected from larger segments of tissue in rigor buffer at 4° C. (20 μM MOPS, 5 μM MgCl2, 120 μM potassium acetate, 1 μM EGTA, pH 7.0). They were then suspended between a 400 A force transducer (Aurora Scientific, Ontario, Canada) and a fixed post and secured with 2-4 μl of a 5% solution of methylcellulose in acetone. […]
Force production was measured in skinned diaphragm fibers from SHAM and LAD rats exposed to increasing concentrations of calcium in the presence and absence of Compound D according to the procedure of Example 1.

[8] = skinned fibers, constant calcium, 10 nM-40 μM
[9] = 30 μM, submaximal frequencies of electrical stimulation

## CCC(CC)n1c(O)nc2ncc(Br)nc21 [Compound A, 6-bromo-1-(ethylpropyl)imidazo[4,5-b]pyrazin-2-ol]
[1]; rat diaphragm fibers, constant free calcium 3.16 μM (pCa=5.5), n=4, read-out: EC50, increase in skinned fiber tension
  EC50: 1200 nM
[1]; [8]
  tension in rat diaphragm muscle: increased tension
[2]; rabbit psoas fibers, constant free calcium 1.78 μM (pCa=5.75), n=3, read-out: EC50, increase in skinned fiber tension
  EC50: 590 nM
[2]; [8]
  tension in rabbit psoas muscle: increased tension

## NC(=O)c1cccc(-c2cnc(NC[C@]3(c4ncccc4F)C[C@H](F)C3)nc2)c1 [Compound B, 3-(2-(((trans)-3-fluoro-1-(3-fluoropyridin-2-yl)cyclobutyl)methylamino)pyrimidin-5-yl)benzamide]
Rat diaphragm muscle [3]; frequencies up to 30 Hz of electrical stimulation
  force production compared to vehicle-only diaphragms: significantly more force
[4]; 0.5 uM compound, vehicle −5.43 ± 0.03
  pCa at 50% of Maximum Tension, Log [Ca^2+] (M): −5.78 ± 0.008 M
[4]; 1 uM compound, vehicle −5.43 ± 0.03
  pCa at 50% of Maximum Tension, Log [Ca^2+] (M): −5.90 ± 0.03 M
[4]; 10 μM Compound B
  increase in calcium sensitivity compared to vehicle-only muscle fibers: 10 fold
[4]; 10 uM compound, vehicle −5.43 ± 0.03
  pCa at 50% of Maximum Tension, Log [Ca^2+] (M): −6.46 ± 0.03 M
Rat diaphragm muscle [5]
  force production over 600 contractions compared to vehicle-only diaphragms: significantly more force

## C#Cc1cnc2nc(O)n(C(CC)CC)c2n1 [Compound C, 1-(ethylpropyl)-6-ethynylimidazo[4,5-b]pyrazin-2-ol]
SOD1 mice; after 30 minute exposure to 5% CO2
  tidal volume at recovery compared to vehicle-treated animals: significantly higher tidal volume
SOD1 mice; room air
  tidal volume at baseline compared to vehicle-treated animals: significantly higher tidal volume
[4]; 0.1 uM compound, vehicle −5.43 ± 0.054
  pCa at 50% of Maximum Tension, Log [Ca^2+] (M): −5.59 ± 0.007 M
[4]; 1 uM compound, vehicle −5.43 ± 0.054
  pCa at 50% of Maximum Tension, Log [Ca^2+] (M): −6.19 ± 0.018 M
[4]; 10 μM Compound C
  increase in calcium sensitivity compared to vehicle-only muscle fibers: 10 fold
[4]; 10 uM compound, vehicle −5.43 ± 0.054
  pCa at 50% of Maximum Tension, Log [Ca^2+] (M): −6.74 ± 0.28 M
[6]
  force production in SOD1 diaphragm muscle compared to vehicle-only: significantly more force
  force production in WT diaphragm muscle compared to vehicle-only: significantly more force

## NC(=O)c1ccn(-c2cnc(NCC3(c4ncccc4F)CC(F)C3)nc2)c1 (stereo not drawn) [Compound D, 1-(2-(((trans)-3-fluoro-1-(3-fluoropyridin-2-yl)cyclobutyl)methylamino)pyrimidin-5-yl)-1H-pyrrole-3-carboxamide]
Rat diaphragm muscle [3]; [9]
  force in HF (LAD) diaphragms: significantly increased force
  force in SHAM diaphragms: significantly increased force
[7]
  Ca^2+ sensitivity of HF diaphragm fibers: significantly increased Ca^2+ sensitivity
  Ca^2+ sensitivity of SHAM diaphragm fibers: significantly increased Ca^2+ sensitivity

— US20170266192A1, “METHODS FOR IMPROVING DIAPHRAGM FUNCTION” (CYTOKINETICS, INC., priority 2012, published 2017)
